“Also recorded” adds a separate entry of the source.
Experiments:
[1] = system: orthotopic xenografts of mouse KPC cells (UN-KPC-960); experiment: Orthotopic pancreatic xenografts of mouse KPC cells in B6.129 mice; assay type: in vivo
Description: To generate the solid tumor, 10^7 of mouse pancreatic ductal adenocarcinoma UN-KPC-960-luc2 cells suspended in 100 μl PBS were inoculated into flank of syngeneic B6.129 mice. The KPC tumors from the donor mice were excised under sterile conditions once the tumor was grown up to […] in diameter. The donor tumors were cut into 1-1.5 mm^3 pieces using surgical blade.
For the orthotopic xenograted tumors in pancreas, a laparotomy via left flank incision was performed to expose the pancreatic head and donor tumor pieces were inserted into the pancreas of recipient B6.129 mice (n=7/group) followed by closing in two layers with 5-0 absorbable sutures. Two weeks after the tumor transplantation, mice were injected with TLY012 via intraperitoneal route (10 mg/kg, every other day) and/or anti-PD-L1 (B7-H1, anti-mouse PD-L1, 2.5 mg/kg, twice of a week) for 2 weeks. Transplanted animals were imaged once a week for 5 weeks. Bioluminescent images using IVIS were acquired 10-15 minutes after intraperitoneal administration of D-Luciferin (150 mg/kg) (GOLDBIO, St. Louis, Mo., USA).
For tumor volume studies, orthotopic xenograted tumors were generated in pancreas. A laparotomy via left flank incision was performed to expose the pancreatic head and 5×10^6 of UN-KPC-960 cells were transplanted into the pancreas of recipient B6.129 mice (n=5/group) followed by closing in two layers with 5-0 absorbable sutures. four weeks after the transplantation, mice were injected with TLY012 via intraperitoneal route (10 mg/kg, every other day) or saline for 2 weeks. Then excised tumors were studied by: a) captured image and tumor volume of ½ab^2, and b) measured collagen and α-SMA positive area after TLY012 treatment using Sirius red and anti-α-SMA staining
Paraffin sectioned KPC tumor samples were used for immunofluorescence staining (IF) stain with α-SMA and either CD4 or CD8. Tissues were deparaffinized, hydrated, and heated in citrate buffer (Thermo Fisher Scientific) by microwave for antigen retrieval. Slides were washed, treated with blocking solution (3% of normal horse serum, Vectastain ABC System, Vector Labs, Burlingame, Calif.), and primary antibodies, rabbit anti-CD4 antibody (Abcam, ab183685) or rabbit anti-CD8 antibody (Abcam, ab217344) were applied with mouse anti-α-SMA antibody. Tissues were incubated overnight at 4° C., washed and anti-rabbit IgG conjugated with Alexa fluor 488 and anti-mouse IgG conjugated with Alexa fluor 633 (Thermo Fisher Scientific) were applied and incubated at room temperature. After washing the slides, samples were mounted with Fluorescence Mounting Medium with DAPI and captured under Axiovert microscope (Carl Zeiss Microscopy, LLC. Thornwood, N.Y.).
The excised tumors were immediately fixed in 10% buffered formalin, embedded in paraffin, and cut at 4 μm thickness. The sections were then stained for Masson's Trichrome or Sirius-Red staining for determining the collagen deposition. Stained tissues were imaged under a light microscope (Nikon Eclipse E600 connected with Nikon DS-Fi2 camera, Nikon USA). Stained pancreatic tissues were randomly selected 10 photos from individual mice, and the positively stained area was quantified using Image J software (NIH, Bethesda, Md.).

[2] = system: activated human primary pancreatic stellate cells (PSCs); experiment: Caspase 3/7 activity and immunoblot in activated pancreatic stellate cells; assay type: cell-based; conditions: TLY012 30 or 100 ng/ml for 3h
Description: Human primary pancreatic stellate cells (PSCs) and stellate cell medium (SteCM) were obtained from ScienCell Research Laboratories (Carlsbad, Calif.). PSCs were cultured on Poly-L-Lysine coated plates in SteCM medium supplemented with 2% of FBS, 1% of stellate cell growth supplement, and 1% of penicillin/streptomycin solution according to the manufacturer's instructions. Pancreatic cancer associated fibroblasts (CAF08) and maintenance media (PC00B5) were obtained from Vitro Biopharma. 100 of PSCs were culture-activated for 7 to have the confluent population of activated cells or 2×10^4 cells of CAF08 were cultured on a 96 well microplate (Corning, CLS3917) for 24h and were incubated with TLY012 (at 30 ng/ml or 100 ng/ml) for 3h. After incubation, 50 μL of Caspase 3/7 substrate/lysis buffer was added to each well and incubated for 30 min after 30 min of equilibration period to room temperature. The luminescence of each sample was measured on a plate reader (Bio-Tek Instruments Inc) with parameters of 1 min lag time and 0.5 sec/well-read time (n=3).
For immunoblot, 100 of PSCs were culture activated on a 6 well plate for 7 days or 2×10^5 of CAF08 cells were plated on 6-well plates followed by control treatment or treatment with TLY012 (at 30 ng/ml or 100 ng/ml) for 3h. The lysates from the cells were tested for the presence of Cl.PARP-1 and SMA using Western bot.

[3] = system: Human Colon Carcinoma Fibroblasts HC-6231; experiment: Caspase 3/7 activity in colon cancer associated fibroblasts; assay type: cell-based; conditions: TLY012 0-1000 ng/ml for 3h, FIG. 12A
Source text: Human Colon Carcinoma Fibroblasts HC-6231 were obtained from Cell Biologics (Catalog Number HC-6231) and maintained in fibroblast media (Cell Biologics, Catalog Number M2267).

ASPC-1/PSC xenografts = experiment: PSC/ASPC-1 subcutaneous xenograft in athymic nude mice; assay type: in vivo
Description: Six-week-old athymic nude mice were anesthetized for all procedures 5×10^6ASPC-1 cells (human pancreas adenocarcinoma ascites metastasis cell line derived from nude mouse xenografts initiated with cells from the ascites of a patient with cancer of the pancreas) were mixed with 5×10^4 PSC cells and injected in a subcutaneous in athymic nude mice. Before injection, the cells were trypsinized, counted, washed twice in 1×PBS and resuspended in 100 μl of Matrigel® matrix (Corning), and injected between the scapulae. Two weeks after the tumor transplantation, mice were injected with TLY012 via intravenous (IV) injection (10 mg/kg, every other day) for 2 weeks, while control mice received PBS. Western blot was performed on tissue extracts with antibodies against GAPDH (Santa Cruz 5 Biotechnology, sc-1694), α-SMA (Sigma, A2547), GRP78 (Santa Cruz Biotechnology, sc-13968), DR4 (Abcam, Cambridge, Mass., #13890), DR5 (Abcam, #47179), PDGF-Rb (Santa Cruz Biotechnology, sc-432), and Cl.PARP-1 (Cell Signaling Technology, #5625).
Comparative quantitative RT-PCR (qPCR) was performed in the tumor sample for fibrogenic markers. qPCR was performed in triplicate for each sample using fast SYBR Green Master Mix (Thermo Fisher Scientific) and StepOnePlus Real-Time PCR System (Thermo Fisher Scientific). The expression levels of target genes were normalized to the expression of 18s and calculated based on the comparative cycle threshold Ct method (2^−ΔΔCt).
Collagen deposition was detected with Masson's Trichrome staining and microscopy.
Mouse xenografts were generated as in Example 8. Two weeks after the tumor transplantation, mice were injected with TLY012 via intravenous (IV) injection (10 mg/kg, every other day) and/or sorafenib (20 mg/kg, oral everyday) for 2 weeks. The mice were euthanized when the tumor volume reached 1500 mm^3 and images of the excised xenografts recorded and tumor weight measured.

TLY012: PEGylated (5 kDa PEG-aldehyde) recombinant human TRAIL (114-281) fused to modified isoleucine zipper (miLZ) at N-terminus; SEQ ID NO:30 trimer
Percent survival ([1]; Day 0): 100%
Bioluminescence activity (Total Counts), Mean ([1]; Day 14): 72300 Total Counts
Bioluminescence activity (Total Counts), Mean ([1]; Day 21): 233157.143 Total Counts
Bioluminescence activity (Total Counts), Mean ([1]; Day 28): 185128.571 Total Counts
Bioluminescence activity (Total Counts), Mean ([1]; Day 35): 390357.143 Total Counts
Percent survival ([1]; Day 35): 100%
tumor volume, Average ([1]; TLY012 i.p. 10 mg/kg every other day and/or anti-PD-L1 2.5 mg/kg twice a week, 2 weeks): 135.0695 mm3
levels of collagen (fibrosis), immunohistochemistry ([1]; TLY012 i.p. 10 mg/kg every other day for 2 weeks): decreased the levels of collagen
tumor volume compared to the saline-treated group ([1]; TLY012 i.p. 10 mg/kg every other day for 2 weeks, FIG. 14): reduced the tumor volume
cytotoxic T cell (CD4, CD8) infiltration to the tumor site ([1]; double immunofluorescence staining, vs saline): enhanced cytotoxic T cell infiltration to the tumor site
Cl.PARP-1, immunoblot [2]: detected
caspase 3/7 activity (RLU) ([2]; vs control treatment): activated caspase 3/7
apoptosis by Caspase3/7 activity assay [3]: induced apoptosis
tumor weight, Mean (ASPC-1/PSC xenografts; TLY012 IV 10 mg/kg every other day and/or sorafenib 20 mg/kg oral everyday for 2 weeks): 1109.5 mg
collagen deposition, Masson's Trichrome staining (ASPC-1/PSC xenografts; TLY012 IV 10 mg/kg every other day, 2 weeks, 10 mg/kg): reduced the levels of collagen; also recorded: markedly reduced collagen deposition
PDGF-Rb, DR5, DR4 (and GRP78) protein levels in tumor, Western blot (ASPC-1/PSC xenografts; TLY012 IV 10 mg/kg every other day, 2 weeks, vs PBS controls, 10 mg/kg): markedly reduced; also recorded: significantly decreased
mRNA levels of fibrogenic markers Acta2, Pdgf-r, Tgf-b in tumor (qPCR) (ASPC-1/PSC xenografts; TLY012 IV 10 mg/kg every other day, 2 weeks, vs control, 10 mg/kg): decreased; also recorded: significantly reduced

Reference: patent US11767353B2, “Trail compositions with reduced immunogenicity” (Theraly Fibrosis, Inc., priority 2020, dated 2023)
